Calls of active or inactive are those of the source. No cut-off for these calls is given here.
Tests used:
B16 [1] = assay: Inhibition of colony formation in mouse B16 cells assessed as reduction in number of colonies at 5 to 7 uM incubated for 24 hrs followed by replacement with fresh medium and measured after 14 days by crystal violet staining based analysis; assay type: functional, cell-based; settings: dose 5-7 µM
A-375 [2] = assay: Induction of apoptosis in human A-375 cells assessed as late apoptotic cells preincubated for 2 hrs with 3-MA followed by compound addition and measured after 24 hrs by Annexin-V-FITC/PI-staining based flow cytometry (reference value: 5.7 %); assay type: functional
A-375 [3] = assay: Induction of cell cycle arrest in human A-375 cells assessed as accumulation at G2/M phase at 6 uM incubated for 24 hrs by PI staining based flow cytometry analysis (reference value: 1.48 %); assay type: functional
A-375 [4] = assay: Cytotoxicity against human A-375 cells assessed as reduction in cell viability measured after 24 hrs by MTT assay; assay type: functional, cell-based; settings: A-375, 24 h
Hep 3B2 = assay: Cytotoxicity against human Hep3B cells assessed as reduction in cell viability by MTT assay; assay type: functional, cell-based
A-375 [5] = assay: Induction of apoptosis in human A-375 cells assessed as late apoptotic cells preincubated for 2 hrs with […] followed by compound addition and measured after 24 hrs by Annexin-V-FITC/PI-staining based flow cytometry (reference value: 5.7 %); assay type: functional
A549 = assay: Cytotoxicity against human A549 cells assessed as reduction in cell viability by MTT assay; assay type: functional, cell-based
B16 [6] = assay: Induction of cell cycle arrest in mouse B16 cells assessed as accumulation at G2/M phase incubated for 24 hrs in presence of AG490 by PI staining based flow cytometry analysis (reference value: 0.88 %); assay type: functional
B16 [7] = assay: Induction of apoptosis in mouse B16 cells assessed as late apoptotic cells measured after 24 hrs by Annexin-V-FITC/PI-staining based flow cytometry (reference value: 5.7 %); assay type: functional
A-375 [8] = assay: Induction of apoptosis in human A-375 cells assessed as […] of Bax/Mcl-1 protein level at 6 to 8 uM incubated for 24 hrs by Western blot analysis; assay type: functional, cell-based; settings: dose 6-8 µM
A-375 [9] = assay: Induction of cell cycle arrest in human A-375 cells assessed as accumulation at S phase at 8 uM incubated for 24 hrs by PI staining based flow cytometry analysis (reference value: 28.83 %); assay type: functional
B16 [10] = assay: Induction of apoptosis in mouse B16 cells assessed as late apoptotic cells at 6 uM measured after 24 hrs by Annexin-V-FITC/PI-staining based flow cytometry (reference value: 4.4 %); assay type: functional
B16 [11] = assay: Induction of cell cycle arrest in mouse B16 cells assessed as accumulation at G0/G1 phase at 5 uM incubated for 24 hrs by PI staining based flow cytometry analysis (reference value: 61.83 %); assay type: functional
A-375 [12] = assay: Induction of apoptosis in human A-375 cells assessed as increase in cleaved caspase 3 expression at 6 to 8 uM incubated for 24 hrs by Western blot analysis; assay type: functional, cell-based; settings: dose 6-8 µM
A-375 [13] = assay: Induction of apoptosis in human A-375 cells assessed as early apoptotic cells preincubated for 2 hrs with […] followed by compound addition and measured after 24 hrs by Annexin-V-FITC/PI-staining based flow cytometry (reference value: 3.1 %); assay type: functional
B16 [14] = assay: Induction of cell cycle arrest in mouse B16 cells assessed as accumulation at G0/G1 phase at 6 uM incubated for 24 hrs by PI staining based flow cytometry analysis (reference value: 61.83 %); assay type: functional
A-375 [15] = assay: Induction of apoptosis in human A-375 cells assessed as early apoptotic cells at 7 uM after 24 hrs by Annexin-V-FITC/PI-staining based flow cytometry (reference value: 1.4 %); assay type: functional
B16 [16] = assay: Induction of cell cycle arrest in mouse B16 cells assessed as accumulation at S phase at 7 uM incubated for 24 hrs by PI staining based flow cytometry analysis (reference value: 33.46 %); assay type: functional
B16 [17] = assay: Induction of apoptosis in mouse B16 cells assessed as late apoptotic cells preincubated for 2 hrs with 3-MA followed by compound addition and measured after 24 hrs by Annexin-V-FITC/PI-staining based flow cytometry (reference value: 5.7 %); assay type: functional
A-375 [18] = assay: Induction of autophagy in human A-375 cells assessed as increase in phosphorylated ACC at 7 uM incubated for 6 to 24 hrs by Western blotting analysis; assay type: functional, cell-based; settings: time 6-24 hrs
B16 [19] = assay: Induction of cell cycle arrest in mouse B16 cells assessed as accumulation at G2/M phase at 6 uM incubated for 24 hrs by PI staining based flow cytometry analysis (reference value: 4.70 %); assay type: functional
A-375 [20] = assay: Induction of cell cycle arrest in human A-375 cells assessed as accumulation at S phase incubated for 24 hrs in presence of AG490 by PI staining based flow cytometry analysis (reference value: 34.44 %); assay type: functional
B16 [21] = assay: Induction of apoptosis in mouse B16 cells assessed as late apoptotic cells at 5 uM measured after 24 hrs by Annexin-V-FITC/PI-staining based flow cytometry (reference value: 4.4 %); assay type: functional
A-375 [22] = assay: Induction of cell cycle arrest in human A-375 cells assessed as accumulation at G0/G1 phase at 8 uM incubated for 24 hrs by PI staining based flow cytometry analysis (reference value: 69.68 %); assay type: functional
A-375 [23] = assay: Induction of apoptosis in human A-375 cells assessed as late apoptotic cells at 7 uM after 24 hrs by Annexin-V-FITC/PI-staining based flow cytometry (reference value: 5.7 %); assay type: functional
A-375 [24] = assay: Induction of autophagy in human A-375 cells assessed as increase in autophagosome with central pulp at 7 uM incubated for 6 to 24 hrs by transmission electron microscopy; assay type: functional, cell-based; settings: time 6-24 hrs
A-375 [25] = assay: Induction of cell cycle arrest in human A-375 cells assessed as accumulation at G0/G1 phase at 7 uM incubated for 24 hrs by PI staining based flow cytometry analysis (reference value: 69.68 %); assay type: functional
B16 [26] = assay: Induction of apoptosis in mouse B16 cells assessed as early apoptotic cells measured after 24 hrs by Annexin-V-FITC/PI-staining based flow cytometry (reference value: 0.9 %); assay type: functional
A-375 [27] = assay: Induction of apoptosis in human A-375 cells assessed as late apoptotic cells at 8 uM after 24 hrs by Annexin-V-FITC/PI-staining based flow cytometry (reference value: 5.7 %); assay type: functional
B16 [28] = assay: Induction of cell cycle arrest in mouse B16 cells assessed as accumulation at G2/M phase incubated for 24 hrs by PI staining based flow cytometry analysis (reference value: 0.88 %); assay type: functional
B16 [29] = assay: Induction of cell cycle arrest in mouse B16 cells assessed as accumulation at S phase at 6 uM incubated for 24 hrs by PI staining based flow cytometry analysis (reference value: 33.46 %); assay type: functional
A-375 [30] = assay: Induction of apoptosis in human A-375 cells assessed as […] of Bax/Bcl-2 protein level at 6 to 8 uM incubated for 24 hrs by Western blot analysis; assay type: functional, cell-based; settings: dose 6-8 µM
B16 [31] = assay: Induction of apoptosis in mouse B16 cells assessed as early apoptotic cells preincubated for 2 hrs with 3-MA followed by compound addition and measured after 24 hrs by Annexin-V-FITC/PI-staining based flow cytometry (reference value: 0.9 %); assay type: functional
B16 [32] = assay: Cytotoxicity against mouse B16 cells assessed as change in cell morphology with loss of intercellular contacts at 5 to 7 uM incubated for 24 hrs by phase contrast microscope analysis; assay type: functional, cell-based; settings: dose 5-7 µM

COc1ccc2cc1Oc1ccc(cc1)C[C@H]1c3cc(c(OC)cc3CCN1C)Oc1c(OC)c(OC)c(OC)c3c1[C@H](C2)N(C)CC3 [HERNANDEZINE] was tested, and the inhibition (B16 [1]) was “Active”, the Activity (A-375 [2]) was 27.1% and the Activity (A-375 [3]) was 1.43%. The IC50 (A-375 [4]) was 7.2 µM, the IC50 (Hep 3B2) was 6.71 µM and the Activity (A-375 [5]) was 23.9%. The IC50 (A549) was 7.59 µM, the Activity (B16 [6]) was 8.47% and the Activity (B16 [7]) was 20.6%. The Activity (A-375 [8]) was “Active”, the Activity (A-375 [9]) was 19.2% and the Activity (B16 [10]) was 19.2%. The Activity (B16 [11]) was 72%, the Activity (A-375 [12]) was “Active” and the Activity (A-375 [13]) was 34.8%. It also gave an Activity (B16 [14]) of 72.89%, an Activity (A-375 [15]) of 9.4% and an Activity (B16 [16]) of 20.64%. The Activity (B16 [17]) was 14.5%, the Activity (A-375 [18]) was “Active” and the Activity (B16 [19]) was 3.27%. It also gave an Activity (A-375 [20]) of 24.36%, an Activity (B16 [21]) of 17.8% and an Activity (A-375 [22]) of 79.56%. The Activity (A-375 [23]) was 47%, the Activity (A-375 [24]) was “Active” and the Activity (A-375 [25]) was 76.87%. It also gave an Activity (B16 [26]) of 25.6%, an Activity (A-375 [27]) of 53.4% and an Activity (B16 [28]) of 8.78%. For the same compound, the Activity (B16 [29]) was 23.84%, the Activity (A-375 [30]) was “Active” and the Activity (B16 [31]) was 14.1%. For the same compound, the Activity (B16 [32]) was “Active”.

— ChEMBL document CHEMBL5120867, “Hernandezine Regulates Proliferation and Autophagy-Induced Apoptosis in Melanoma Cells” (J Nat Prod, 2022)
